Source: paper PMC5218480 (PLoS ONE, 2017)

Tested on: MV-4-11 cells
Assay: Gene expression microarray analysis (Affymetrix PrimeView) and GSEA
Assay type: cell-based, human
Parameters: RFU PODN (11730768_x_at) / Fold change /veh PODN (11730768_x_at) / RFU LINC00158 (11744669_a_at) / Fold change /veh LINC00158 (11744669_a_at) / RFU DUSP10 (11751237_a_at) / Fold change /veh DUSP10 (11751237_a_at) / RFU ID3 (11757404_x_at) / Fold change /veh ID3 (11757404_x_at) / RFU PLEKHG5 (11737974_s_at) / Fold change /veh PLEKHG5 (11737974_s_at) / RFU LRRC4B (11730491_at) / Fold change /veh LRRC4B (11730491_at) / RFU GIMAP4 (11747438_a_at) / Fold change /veh GIMAP4 (11747438_a_at) / RFU KRT8 (11758183_x_at) / Fold change /veh KRT8 (11758183_x_at) / RFU CNN1 (11734310_a_at) / Fold change /veh CNN1 (11734310_a_at) / RFU VPS37D (11726825_at) / Fold change /veh VPS37D (11726825_at) / RFU C10orf10 (11716522_x_at) / Fold change /veh C10orf10 (11716522_x_at) / RFU KIR2DL2 /// KIR2DL4 /// KIR2DL5A /// KIR2DL5B /// KIR2DS1 /// KIR2DS2 /// KIR2DS3 /// KIR2DS4 /// KIR3DL3 /// KIR3DL3 /// KIR3DS1 (11738374_at) / Fold change /veh KIR2DL2 /// KIR2DL4 /// KIR2DL5A /// KIR2DL5B /// KIR2DS1 /// KIR2DS2 /// KIR2DS3 /// KIR2DS4 /// KIR3DL3 /// KIR3DL3 /// KIR3DS1 (11738374_at) / RFU C1QL1 (11718748_at) / Fold change /veh C1QL1 (11718748_at) / RFU TMPRSS4 (11747572_a_at) / Fold change /veh TMPRSS4 (11747572_a_at) / RFU HAMP (11756126_x_at) / Fold change /veh HAMP (11756126_x_at) / RFU RNFT2 (11725882_a_at) / Fold change /veh RNFT2 (11725882_a_at) / RFU NR4A2 (11747474_a_at) / Fold change /veh NR4A2 (11747474_a_at) / RFU ABCC12 (11746883_a_at) / Fold change /veh ABCC12 (11746883_a_at) / RFU TMEM136 (11760407_x_at) / Fold change /veh TMEM136 (11760407_x_at) / RFU CLDN22 /// WWC2 (11732394_at) / Fold change /veh CLDN22 /// WWC2 (11732394_at) / RFU HLA-DPB1 (11760878_x_at) / Fold change /veh HLA-DPB1 (11760878_x_at) / RFU SPINT1 (11716480_a_at) / Fold change /veh SPINT1 (11716480_a_at) / RFU GAP43 (11754022_s_at) / Fold change /veh GAP43 (11754022_s_at) / RFU A4GNT (11735810_at) / Fold change /veh A4GNT (11735810_at) / RFU PRB3 (11715151_x_at) / Fold change /veh PRB3 (11715151_x_at) / RFU TUBB4B (11761932_at) / Fold change /veh TUBB4B (11761932_at) / RFU CAPN14 (11732068_a_at) / Fold change /veh CAPN14 (11732068_a_at) / RFU TMCC2 (11721928_a_at) / Fold change /veh TMCC2 (11721928_a_at) / RFU IRGQ (11745062_a_at) / Fold change /veh IRGQ (11745062_a_at) / RFU FAM174B (11720279_a_at) / Fold change /veh FAM174B (11720279_a_at) / RFU TMPRSS4 (11748680_a_at) / Fold change /veh TMPRSS4 (11748680_a_at) / RFU FAM212B (11763350_a_at) / Fold change /veh FAM212B (11763350_a_at) / RFU PLEKHG5 (11743358_a_at) / Fold change /veh PLEKHG5 (11743358_a_at) / RFU ZSCAN30 (11745921_a_at) / Fold change /veh ZSCAN30 (11745921_a_at) / RFU CMKLR1 (11741424_a_at) / Fold change /veh CMKLR1 (11741424_a_at) / RFU LOC101060620 /// MAPK8IP1 (11723275_at) / Fold change /veh LOC101060620 /// MAPK8IP1 (11723275_at) / RFU SPTSSB (11747773_x_at) / Fold change /veh SPTSSB (11747773_x_at) / RFU PRSS12 (11739890_at) / Fold change /veh PRSS12 (11739890_at) / RFU BIN1 (11741810_x_at) / Fold change /veh BIN1 (11741810_x_at) / RFU WNT11 (11732464_a_at) / Fold change /veh WNT11 (11732464_a_at) / RFU C10orf10 (11716521_a_at) / Fold change /veh C10orf10 (11716521_a_at) / RFU C5orf56 (11738089_at) / Fold change /veh C5orf56 (11738089_at) / RFU CYB561 (11721691_x_at) / Fold change /veh CYB561 (11721691_x_at) / RFU ANKRD19P (11752326_a_at) / Fold change /veh ANKRD19P (11752326_a_at) / RFU OR2T12 /// OR2T33 /// OR2T8 (11738714_s_at) / Fold change /veh OR2T12 /// OR2T33 /// OR2T8 (11738714_s_at) / RFU VCAN (11748164_a_at) / Fold change /veh VCAN (11748164_a_at) / RFU JSRP1 (11732532_at) / Fold change /veh JSRP1 (11732532_at) / RFU KRTAP10-11 (11738290_x_at) / Fold change /veh KRTAP10-11 (11738290_x_at) / RFU MYO3A (11730013_a_at) / Fold change /veh MYO3A (11730013_a_at) / RFU EBF3 (11725865_a_at) / Fold change /veh EBF3 (11725865_a_at) / RFU CAMK2N1 (11719241_x_at) / Fold change /veh CAMK2N1 (11719241_x_at) / RFU C5orf56 (11738088_a_at) / Fold change /veh C5orf56 (11738088_a_at) / RFU OLFML3 (11715873_a_at) / Fold change /veh OLFML3 (11715873_a_at) / RFU LOC100653217 /// NTM (11731650_a_at) / Fold change /veh LOC100653217 /// NTM (11731650_a_at) / RFU MAPK11 (11762145_a_at) / Fold change /veh MAPK11 (11762145_a_at) / RFU FIZ1 (11724087_x_at) / Fold change /veh FIZ1 (11724087_x_at) / RFU OASL (11726364_x_at) / Fold change /veh OASL (11726364_x_at) / RFU SOX15 (11748057_x_at) / Fold change /veh SOX15 (11748057_x_at) / RFU CD79A (11719716_a_at) / Fold change /veh CD79A (11719716_a_at) / RFU HIST1H1D (11736915_at) / Fold change /veh HIST1H1D (11736915_at) / RFU CASKIN2 (11723855_a_at) / Fold change /veh CASKIN2 (11723855_a_at) / RFU LOC730098 (11760151_x_at) / Fold change /veh LOC730098 (11760151_x_at) / RFU OR4N2 (11742367_at) / Fold change /veh OR4N2 (11742367_at) / RFU PRRT2 (11749266_a_at) / Fold change /veh PRRT2 (11749266_a_at) / RFU SNX32 (11753110_a_at) / Fold change /veh SNX32 (11753110_a_at) / RFU CDHR5 (11726645_a_at) / Fold change /veh CDHR5 (11726645_a_at) / RFU RCAN1 (11760418_a_at) / Fold change /veh RCAN1 (11760418_a_at) / RFU FAM167A (11723789_a_at) / Fold change /veh FAM167A (11723789_a_at) / RFU FAM26E (11764081_at) / Fold change /veh FAM26E (11764081_at) / RFU ISYNA1 (11749810_s_at) / Fold change /veh ISYNA1 (11749810_s_at) / RFU ACY1 (11761880_at) / Fold change /veh ACY1 (11761880_at) / RFU 11764098_at / Fold change /veh 11764098_at / RFU SAMD14 (11745864_x_at) / Fold change /veh SAMD14 (11745864_x_at) / RFU NPB (11741838_a_at) / Fold change /veh NPB (11741838_a_at) / RFU TMPRSS6 (11731388_a_at) / Fold change /veh TMPRSS6 (11731388_a_at) / RFU KRTAP10-2 (11738614_at) / Fold change /veh KRTAP10-2 (11738614_at) / RFU ARHGAP8 /// PRR5-ARHGAP8 (11727945_x_at) / Fold change /veh ARHGAP8 /// PRR5-ARHGAP8 (11727945_x_at) / RFU KRTAP5-7 /// NADSYN1 (11734609_at) / Fold change /veh KRTAP5-7 /// NADSYN1 (11734609_at) / RFU RASL12 (11751679_a_at) / Fold change /veh RASL12 (11751679_a_at) / RFU CDKN2B (11736163_a_at) / Fold change /veh CDKN2B (11736163_a_at) / RFU PRF1 (11729649_at) / Fold change /veh PRF1 (11729649_at) / RFU, ZNF638 /// ZNF638-IT1 / Fold change vs veh, ZNF638 /// ZNF638-IT1 / RFU, PANK3 / Fold change vs veh, PANK3 / RFU, SH3YL1 / Fold change vs veh, SH3YL1 / RFU, ZEB2 / Fold change vs veh, ZEB2 / RFU, NRIP1 / Fold change vs veh, NRIP1 / RFU, PTTG1IP / Fold change vs veh, PTTG1IP / RFU, CAPN2 / Fold change vs veh, CAPN2 / RFU, MED14 / Fold change vs veh, MED14 / RFU, SNORA58 / Fold change vs veh, SNORA58 / RFU, C1orf63 / Fold change vs veh, C1orf63 / RFU, LRRFIP1 / Fold change vs veh, LRRFIP1 / RFU, NDUFAF7 / Fold change vs veh, NDUFAF7 / RFU, SLC12A2 / Fold change vs veh, SLC12A2 / RFU, IBTK / Fold change vs veh, IBTK / RFU, ESF1 / Fold change vs veh, ESF1 / Fold change vs veh, TMEM50B / RFU, TAOK1 / Fold change vs veh, TAOK1 / RFU, ACBD3 / Fold change vs veh, ACBD3 / RFU, TMA16 / Fold change vs veh, TMA16 / RFU, RWDD3 / Fold change vs veh, RWDD3 / RFU, BCAT1 / Fold change vs veh, BCAT1 / RFU, EDEM3 / Fold change vs veh, EDEM3 / RFU, TMEM33 / Fold change vs veh, TMEM33 / RFU, WDR75 / Fold change vs veh, WDR75 / RFU, AHCTF1 / Fold change vs veh, AHCTF1 / RFU, TFRC / Fold change vs veh, TFRC / RFU, ZDHHC17 / Fold change vs veh, ZDHHC17 / RFU, NOM1 / Fold change vs veh, NOM1 / RFU, ARL8B / Fold change vs veh, ARL8B / RFU, ZBTB11 / Fold change vs veh, ZBTB11 / RFU, TAMM41 / Fold change vs veh, TAMM41 / RFU, KIAA1704 /// LOC100996395 / Fold change vs veh, KIAA1704 /// LOC100996395 / RFU, ING1 / Fold change vs veh, ING1 / RFU, TRMT61B / Fold change vs veh, TRMT61B / RFU, FUBP3 / Fold change vs veh, FUBP3 / RFU, TP53 / Fold change vs veh, TP53 / RFU, TNKS2 / Fold change vs veh, TNKS2 / RFU, ZFP14 / Fold change vs veh, ZFP14 / RFU, ACTR2 / Fold change vs veh, ACTR2 / RFU, PPP3R1 / Fold change vs veh, PPP3R1 / RFU, PIK3R1 / Fold change vs veh, PIK3R1 / RFU, HNRNPA1 / Fold change vs veh, HNRNPA1 / RFU, RNF170 / Fold change vs veh, RNF170 / RFU, ZNF28 / Fold change vs veh, ZNF28 / RFU, RNGTT / Fold change vs veh, RNGTT / RFU, OGT / Fold change vs veh, OGT / RFU, BRD1 / Fold change vs veh, BRD1 / RFU, MARS / Fold change vs veh, MARS / RFU, ZNF655 / Fold change vs veh, ZNF655 / RFU, FAHD1 / Fold change vs veh, FAHD1 / RFU, BDP1 / Fold change vs veh, BDP1 / RFU, LRRCC1 / Fold change vs veh, LRRCC1 / RFU, ARID1A / Fold change vs veh, ARID1A / RFU, ZNF146 / Fold change vs veh, ZNF146 / RFU, ZNF330 / Fold change vs veh, ZNF330 / RFU, GPN3 / Fold change vs veh, GPN3 / RFU, C9orf123 / Fold change vs veh, C9orf123 / RFU, N4BP2L2 / Fold change vs veh, N4BP2L2 / RFU, ARFIP1 / Fold change vs veh, ARFIP1 / RFU, FAM179B / Fold change vs veh, FAM179B / RFU, BCL10 / Fold change vs veh, BCL10 / RFU, UHRF1BP1L / Fold change vs veh, UHRF1BP1L / RFU, BET1 / Fold change vs veh, BET1 / RFU, CNOT2 / Fold change vs veh, CNOT2 / RFU, ZNF268 / Fold change vs veh, ZNF268 / Fold change vs veh, ZNF507 / RFU, DGCR2 / Fold change vs veh, DGCR2 / RFU, WDSUB1 / Fold change vs veh, WDSUB1 / Fold change vs veh, HSP90B1 /// MIR3652 / RFU, ADSS / Fold change vs veh, ADSS / RFU, GK / Fold change vs veh, GK / RFU, ZNF148 / Fold change vs veh, ZNF148 / RFU, TAF9 / Fold change vs veh, TAF9 / RFU, SLC1A5 / Fold change vs veh, SLC1A5 / RFU, SLMO2 / Fold change vs veh, SLMO2 / RFU, ABCC4 / Fold change vs veh, ABCC4 / RFU, LOC101060439 /// RAP1B / Fold change vs veh, LOC101060439 /// RAP1B / RFU, RFX7 / Fold change vs veh, RFX7 / RFU, GTPBP10 / Fold change vs veh, GTPBP10 / RFU, CNEP1R1 / Fold change vs veh, CNEP1R1 / RFU, BIVM-ERCC5 /// ERCC5 / Fold change vs veh, BIVM-ERCC5 /// ERCC5 / RFU, ILF3 / Fold change vs veh, ILF3 / RFU 11762660_at / Fold change /veh 11762660_at / RFU VCAN (11757783_s_at) / Fold change /veh VCAN (11757783_s_at) / RFU DDX43 (11728927_at) / Fold change /veh DDX43 (11728927_at) / RFU KRT8 (11758188_x_at) / Fold change /veh KRT8 (11758188_x_at) / RFU NKD1 (11759106_at) / Fold change /veh NKD1 (11759106_at) / RFU SRD5A1 (11742802_a_at) / Fold change /veh SRD5A1 (11742802_a_at) / RFU TPSAB1 /// TPSB2 (11721975_s_at) / Fold change /veh TPSAB1 /// TPSB2 (11721975_s_at) / RFU GSTM3 (11746129_a_at) / Fold change /veh GSTM3 (11746129_a_at) / RFU IL23R (11737362_x_at) / Fold change /veh IL23R (11737362_x_at) / RFU TMEM51 (11727254_a_at) / Fold change /veh TMEM51 (11727254_a_at) / RFU PIWIL2 (11732686_x_at) / Fold change /veh PIWIL2 (11732686_x_at) / RFU ORM1 (11744905_x_at) / Fold change /veh ORM1 (11744905_x_at) / RFU CCDC152 (11743942_at) / Fold change /veh CCDC152 (11743942_at) / RFU ECM1 (11717891_a_at) / Fold change /veh ECM1 (11717891_a_at) / RFU IL23R (11748794_a_at) / Fold change /veh IL23R (11748794_a_at) / RFU TNFAIP8L3 (11732012_x_at) / Fold change /veh TNFAIP8L3 (11732012_x_at) / RFU MBOAT4 (11741988_at) / Fold change /veh MBOAT4 (11741988_at) / RFU 11764193_at / Fold change /veh 11764193_at / RFU TMEM53 (11763286_at) / Fold change /veh TMEM53 (11763286_at) / RFU MAGEB2 (11727129_at) / Fold change /veh MAGEB2 (11727129_at) / RFU TMEM200A (11744735_a_at) / Fold change /veh TMEM200A (11744735_a_at) / RFU CCDC152 (11751479_a_at) / Fold change /veh CCDC152 (11751479_a_at) / RFU FAM211A (11726209_a_at) / Fold change /veh FAM211A (11726209_a_at) / RFU RGS16 (11746705_a_at) / Fold change /veh RGS16 (11746705_a_at) / RFU VCAN (11755009_s_at) / Fold change /veh VCAN (11755009_s_at) / RFU RHOB (11743442_s_at) / Fold change /veh RHOB (11743442_s_at) / RFU RGS16 (11720943_a_at) / Fold change /veh RGS16 (11720943_a_at) / RFU RGS16 (11720944_at) / Fold change /veh RGS16 (11720944_at) / RFU, VPS4B / Fold change vs veh, VPS4B / RFU, CREB1 / Fold change vs veh, CREB1 / RFU, DNAJC13 / Fold change vs veh, DNAJC13 / RFU, GNAQ / Fold change vs veh, GNAQ / RFU, CDK5R1 / Fold change vs veh, CDK5R1 / RFU, ZRANB3 / Fold change vs veh, ZRANB3 / RFU, CUL4A / Fold change vs veh, CUL4A / RFU, CCNY / Fold change vs veh, CCNY / RFU, UFL1 / Fold change vs veh, UFL1 / RFU, COG3 / Fold change vs veh, COG3 / RFU, DIAPH2 / Fold change vs veh, DIAPH2 / RFU, SKA2 / Fold change vs veh, SKA2 / RFU, AFF3 / Fold change vs veh, AFF3 / RFU, LMF1 / Fold change vs veh, LMF1 / RFU, IPO11 / Fold change vs veh, IPO11 / RFU, DFFB / Fold change vs veh, DFFB / RFU, FOXP1 / Fold change vs veh, FOXP1 / RFU, CARD8 / Fold change vs veh, CARD8 / RFU, STRN3 / Fold change vs veh, STRN3 / RFU, ADK / Fold change vs veh, ADK / RFU, RASSF2 / Fold change vs veh, RASSF2 / RFU, WIPF1 / Fold change vs veh, WIPF1 / RFU, LARP1B / Fold change vs veh, LARP1B / RFU, RASA1 / Fold change vs veh, RASA1 / RFU, RB1 / Fold change vs veh, RB1 / RFU, PPFIA1 / Fold change vs veh, PPFIA1 / RFU, MAT2A / Fold change vs veh, MAT2A / RFU, CCT5 / Fold change vs veh, CCT5 / RFU, WDR92 / Fold change vs veh, WDR92 / RFU, CUX1 / Fold change vs veh, CUX1 / RFU, TTC7A / Fold change vs veh, TTC7A / RFU, TMEM135 / Fold change vs veh, TMEM135 / RFU, DEPTOR / Fold change vs veh, DEPTOR / RFU, CPM / Fold change vs veh, CPM / RFU, DNAJB6 / Fold change vs veh, DNAJB6 / RFU, CACNA2D3 / Fold change vs veh, CACNA2D3 / RFU, DTX4 / Fold change vs veh, DTX4 / RFU, TFCP2 / Fold change vs veh, TFCP2 / RFU, GMCL1 /// GMCL1P1 / Fold change vs veh, GMCL1 /// GMCL1P1 / RFU, AEBP2 / Fold change vs veh, AEBP2 / RFU, SNHG1 /// SNORD22 /// SNORD25 /// SNORD26 /// SNORD27 /// SNORD28 /// SNORD29 /// SNORD31 / Fold change vs veh, SNHG1 /// SNORD22 /// SNORD25 /// SNORD26 /// SNORD27 /// SNORD28 /// SNORD29 /// SNORD31 / Fold change (Aza/veh), C12orf56 (ProbeSet 11735607_a_at) / Fold change (ACY-1035/veh), C12orf56 (ProbeSet 11735607_a_at) / Fold change (Aza/veh), FGFR1OP (ProbeSet 11751329_s_at) / Fold change (ACY-1035/veh), FGFR1OP (ProbeSet 11751329_s_at) / Fold change (Aza/veh), VPS36 (ProbeSet 11739960_a_at) / Fold change (ACY-1035/veh), VPS36 (ProbeSet 11739960_a_at) / RFU SYPL1 (11715823_x_at) / Fold change /veh SYPL1 (11715823_x_at) / RFU IGFBP7 (11715501_s_at) / Fold change /veh IGFBP7 (11715501_s_at) / RFU REEP3 (11722064_at) / Fold change /veh REEP3 (11722064_at) / RFU IGLL1 (11728026_x_at) / Fold change /veh IGLL1 (11728026_x_at): dose or concentration left out as unconfirmed
Settings: ProbeSet 11740528_a_at; LIST D

Nc1ncn([C@@H]2O[C@H](CO)[C@@H](O)[C@H]2O)c(=O)n1 [azacitidine]
Fold change vs veh, AFF3: 0.47
